Data taken from patent publication US20220251079A1, “BENZO[B][1,8]NAPHTHYRIDINE ACETIC ACID DERIVATIVES AND METHODS OF USE” (STINGTHERA, INC., priority 2019, published 2022).

Key:
[1] = molecular target: T1, human STING protein (140-379) (Homo sapiens, UniProt Q86WV6, H232R); test: Radiometric filtration binding competition assay (WT_FBA_HIS-SUMO-hSWAT); settings: read-out: WT-hSWAT IC50
T1 construct: 6XHIS-SUMO-hSTING (140-379); made in house; host or cells: BL-21(DE3) E. coli, pET vector
Method: A radiometric filtration binding competition assay was performed to quantify the binding affinity of compounds of the present application for the human or mouse STING protein, or associated HAQ human isoform. The competition format filtration binding assay detects the ability of small molecule compounds from binding to and inhibiting the subsequent binding of a tritiated [H3] […] The resulting dose response was fit by non-linear regression to determine an IC50 value, from which a Ki value for each compound was extrapolated.
Briefly, the recombinant C-terminal ligand binding domain of the human STING protein (140-379) or mouse STING protein (139-328) [0.5 μM] was incubated in the presence of a compound of the present application (8 point, 2 fold dilution starting at 300 μM) for 30 min or under control conditions. […] The resulting complexes were then filtered, dried, and scintillation fluid was added and the remaining radio signal was measured to determine the degree of compound ligand inhibition. This assay format was optimized for both the WT and HAQ isoforms of the human protein and the mouse orthologue protein.
Parameters optimized: • a. Form of protein: 6×HIS-SUMO tag or untagged • b. Concentration of target protein: Minimum concentration that achieved >80 max signal • c. Assay DMSO concentration: 10%-0.1% • d. Assay Buffer: Base (Tris or phosphate), Salt concentration, +/−Tween (0.1-2%) • e. […] Probe Concentration: Minimum concentration that achieved max assay window • g. Assay Format: Scintillation Proximity Bead or Filtration Binding Plate • h. Assay Plate: 384 vs 96 well format • i. Assay incubation times for successive incubation steps
WT-hSWAT: WT_FBA_HIS-SUMO-hSWAT IC50 (μM) (“WT”=Wild-type); and WT-mSWAT: MOUSE_FBA_HIS-SUMO-mSWAT C50 (μM) which is the mouse isoform of STING protein.

STING protein = molecular target: T2, STING protein (Homo sapiens, UniProt Q86WV6, H232R); test: Cell based reporter assay of IRF activation (THP1-dual-KI R232, IRF luciferase); settings: THP-1; read-out: THP1-dual-KI R232_IRF(Luciferase)_Activity Maximum measured (%)
T2 construct: host or cells: THP-1 dual reporter cells, TMEM173 modified from HAQ to R232 (THP1-dual-KI R232)
T2 sequence (Q86WV6 whole entry H232R): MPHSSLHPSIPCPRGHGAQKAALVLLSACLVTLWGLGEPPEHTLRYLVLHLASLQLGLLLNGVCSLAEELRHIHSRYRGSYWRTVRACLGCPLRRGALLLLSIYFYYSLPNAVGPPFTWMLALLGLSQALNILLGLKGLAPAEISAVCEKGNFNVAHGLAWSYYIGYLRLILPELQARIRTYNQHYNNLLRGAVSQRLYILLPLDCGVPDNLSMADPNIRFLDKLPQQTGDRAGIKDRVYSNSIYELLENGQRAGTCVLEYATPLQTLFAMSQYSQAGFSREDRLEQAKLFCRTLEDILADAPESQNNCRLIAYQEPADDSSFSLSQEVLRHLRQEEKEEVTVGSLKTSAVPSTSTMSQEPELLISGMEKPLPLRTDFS
Source text: Cell reporter assays were developed to measure the ability of compounds of the application to activate the STING protein and activate both IRF/IFN and the NFkB signaling pathways in the myeloid derived cell line THP-1, which is commercially available from several suppliers. Briefly, THP-1 monocytes were transfected and selected for stable integration of 2 reporter constructs. Clones incorporating stably integrated vectors were further selected by antibiotic resistance to blastocidin and zeocin. The reporter constructs included: (1) firefly luciferase reporter gene under the control of an ISG54 promoter fused to five interferon (IFN)-stimulated response elements to measure IRF transcription factor binding activity and (2) secreted embryonic alkaline phosphatase reporter gene under transcription control of an IFN-beta minimal promoter fused to 5 copies of the NFkB consensus transcriptional response element and 3 copies of the c-Rel binding site.
The resulting THP-1 cell line was further modified to incorporate 3 amino acid point mutations (H71R A230G Q293R). This modification of the native TMEM173 gene in THP-1 cells (HAQ) was designed to produce a cell reporter that expressed the most common allelic variant in the human population (THP-1 R232, available from InvivoGen). Alternatively, the TMEM173 gene was knocked out to provide a congenic control to counter-screen for compound activation that was independent of the STING protein (THP-1 STING KO).
Once cell lines were established, reporter assay protocols were developed and optimized to screen small molecule compounds for agonist activity. Assay optimization for efficacy and Z′ value included titration of the following parameters:
1. No pre-activation with PMA
2. […]cells/well in 96 well plate format
7. Cell Titer Glo reagent (Promega) following supermatant removal
9. 8 point, 2 fold, duplicate starting at 150 μM PP28T

hSTING-R232 = molecular target: T3, hSTING-R232 (Homo sapiens, UniProt Q86WV6, H232R); test: STING Differential Scanning Fluorimetry (DSF) assay, human; assay type: binding; settings: human STING R232-WT, 5 μM protein
T3 construct: recombinant mouse or human STING protein (aa140-379); 6xHis-SUMO elsewhere) (cleaved yes); made in house
T3 sequence (Q86WV6 140-379 H232R): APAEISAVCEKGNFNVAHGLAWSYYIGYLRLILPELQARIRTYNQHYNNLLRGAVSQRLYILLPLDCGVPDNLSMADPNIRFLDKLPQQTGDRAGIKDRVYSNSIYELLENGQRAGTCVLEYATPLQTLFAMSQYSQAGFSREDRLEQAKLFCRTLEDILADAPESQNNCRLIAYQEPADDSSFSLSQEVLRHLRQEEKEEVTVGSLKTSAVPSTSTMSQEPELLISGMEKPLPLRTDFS
Method: A STING DSF assay was performed to determine protein thermostability shift in response to small molecule ligand binding. A STING thermostability shift assay based on differential scanning fluorimetry was used to measure (1) the net shift in melting temperature (ΔTm)between the apo and ligand-bound states of the STING protein and (2) the concentration of the thermal denaturation transition (FC50) as a surrogate measure of binding affinity (Kd). Briefly, recombinant mouse or human STING protein (aa140-379) comprising the C-terminal binding domain (R232-WT) were purified by affinity chromatography and further processed to remove the purification tag, followed by gel filtration to achieve purity >95%. Protein in assay buffer was transferred to a 384 well plate and incubated with the hydrophobic fluorescent dye SYBR Orange. A temperature ramp was applied to the plate and the resulting dye fluorescence was plotted as a function of temperature. The first derivative of this function (dF/dT) was then used to extrapolate the melting temperature of the protein at various concentrations of compound and determine the thermal denaturation profile of a protein/compound complex.
2. 5 μM purified Target STING Protein
4. Buffer: 100 mM NaCl, 30 mM HEPES, pH 7.5
5. Thermal Ramp: 0.5° C./min
7. 11 point, 2 fold dilution, duplicate, 300 μM high concentrations

T1 sequence (Q86WV6 140-379 H232R): as above

SMILES	IC50 [1]	Emax (STING protein)	WT_DSF_hSWAT Tm Shift (° C.) (hSTING-R232)
Cc1ccc2c(=O)c3ccc(N(C)C)nc3n(CC(=O)O)c2c1N(C)C [Compound 61, sodium 2-(2,9-bis(dimethylamino)-8-methyl-5-oxobenzo[b][1,8]naphthyridin-10(5H)-yl)acetate]	20 to 100 µM	> 50%	D (“D” > 7° C.)
CSc1c(Cl)ccc2c(=O)c3ccc(N(C)CCn4ccnc4C)nc3n(CC(=O)O)c12 [Compound 81, sodium 2-(8-chloro-2-{methyl[2-(2-methylimidazol-1-yl)ethyl]amino}-9-(methylsulfanyl)-5-oxobenzo[b]1,8-naphthyridin-10-yl)acetate]	20 to 100 µM	5 to 25%	D (“D” > 7° C.)
CSc1c(Cl)ccc2c(=O)c3ccc(NCC4CC(F)(F)C4)nc3n(CC(=O)O)c12 [Compound 54, Sodium 2-(8-chloro-2-(((3,3-difluorocyclobutyl)methyl)amino)-9-(methylthio)-5-oxobenzo[b][1,8]naphthyridin-10(5H)-yl)acetate]	20 to 100 µM	> 50%	D (“D” > 7° C.)
CN(C)c1c(Cl)ccc2c(=O)c3ccc(Nc4ccccc4)nc3n(CC(=O)O)c12 [Compound 6]	< 20 µM	> 50%	D (“D” > 7° C.)
COc1ccc2c(=O)c3ccc(Cl)c(N(C)C)c3n(CC(=O)O)c2n1 [Compound 21, 2-(8-chloro-9-(dimethylamino)-2-methoxy-5-oxobenzo[b][1,8]naphthyridin-10(5H)-yl) acetic acid]	20 to 100 µM	> 50%	C (“C” = 2-7° C.)
CN(C)c1c(Cl)ccc2c(=O)c3ccc(NCC4CC(F)(F)C4)nc3n(CC(=O)O)c12 [Compound 53, Sodium 2-(8-chloro-2-(((3,3-difluorocyclobutyl)methyl)amino)-9-(dimethylamino)-5-oxobenzo[b][1,8]naphthyridin-10(5H)-yl)acetate]	< 20 µM	> 50%	D (“D” > 7° C.)
CSc1c(Cl)ccc2c(=O)c3ccc(N(C)C4CC(C#N)C4)nc3n(CC(=O)O)c12 (stereo not drawn) [Compound 49, sodium 2-(8-chloro-2-((3-cyanocyclobutyl)(methyl)amino)-9-(methylthio)-5-oxobenzo[b][1,8]naphthyridin-10(5H)-yl)acetate]	20 to 100 µM	> 50%	D (“D” > 7° C.)
CSc1c(Cl)ccc2c(=O)c3ccc(N(CC4CC4)C4CC(OC(F)F)C4)nc3n(CC(=O)O)c12 (stereo not drawn) [Compound 46, sodium 2-(8-chloro-2-((cyclopropylmethyl)(3-(difluoromethoxy)cyclobutyl)amino)-9-(methylthio)-5-oxobenzo[b][1,8]naphthyridin-10(5H)-yl)acetate]	< 20 µM	> 50%	D (“D” > 7° C.)
CN(C)c1c(Cl)ccc2c(=O)c3ccc(C(C)(C)C)nc3n(CC(=O)O)c12 [Compound 5, [2-tert-butyl-8-chloro-9-(dimethylamino)-5-oxobenzo[b]1,8-naphthyridin-10-yl]acetic acid]	< 20 µM	> 50%	D (“D” > 7° C.)
CSc1c(Cl)ccc2c(=O)c3ccc(N(C)C4CC(C)(C)C4)nc3n(CC(=O)O)c12 [Compound 48, sodium 2-(8-chloro-2-((3,3-dimethylcyclobutyl)(methyl)amino)-9-(methylthio)-5-oxobenzo[b][1,8]naphthyridin-10(5H)-yl)acetate]	< 20 µM	> 50%	D (“D” > 7° C.)
CSc1c(Cl)ccc2c(=O)c3ccc(NC4CC(C#N)C4)nc3n(CC(=O)O)c12 (stereo not drawn) [Compound 56, sodium 2-(8-chloro-2-((3-cyanocyclobutyl)amino)-9-(methylthio)-5-oxobenzo[b][1,8]naphthyridin-10(5H)-yl)acetate]	< 20 µM	> 50%	D (“D” > 7° C.)
CC(C)c1ccc2c(=O)c3ccc(Cl)c(N(C)C)c3n(CC(=O)O)c2n1 [Compound 7]	< 20 µM	> 50%	D (“D” > 7° C.)
CO[C@H]1C[C@H](N(C)c2ccc3c(=O)c4ccc(Cl)c(SC)c4n(CC(=O)O)c3n2)C1 (single isomer, unassigned) [Compound 70, 2-(8-chloro-2-(((1r,3r)-3-methoxycyclobutyl)(methyl)amino)-9-(methylthio)-5-oxobenzo[b][1,8]naphthyridin-10(5H)-yl)acetic acid]	< 20 µM	> 50%	D (“D” > 7° C.)
CCOc1c(Cl)ccc2c(=O)c3ccc(N(CCOC)CC(F)F)nc3n(CC(=O)O)c12 [Compound 52, sodium 2-(8-chloro-2-((2,2-difluoroethyl)(2-methoxyethyl)amino)-9-ethoxy-5-oxobenzo[b][1,8]naphthyridin-10(5H)-yl)acetate]	100 to 300 µM	> 50%	C (“C” = 2-7° C.)
CSc1c(Cl)ccc2c(=O)c3ccc(N(CC4CC4)C4CC(F)(F)C4)nc3n(CC(=O)O)c12 [Compound 42, sodium 2-(8-chloro-2-((cyclopropylmethyl)(3,3-difluorocyclobutyl)amino)-9-(methylthio)-5-oxobenzo[b][1,8]naphthyridin-10(5H)-yl)acetate]	20 to 100 µM	> 50%	D (“D” > 7° C.)
CSc1c(Cl)ccc2c(=O)c3ccc(N(C)CCn4ccnc4)nc3n(CC(=O)O)c12 [Compound 71, Sodium 2-(8-chloro-2-{[2-(imidazole-1-yl)ethyl](methyl)amino}-9-(methylsulfanyl)-5-oxobenzo[b]1,8-naphthyridin-10-yl)acetate]	20 to 100 µM	5 to 25%	D (“D” > 7° C.)
CCOc1c(Cl)ccc2c(=O)c3ccc(NCC4CCOCC4)nc3n(CC(=O)O)c12 [Compound 60, sodium 2-(8-chloro-9-ethoxy-5-oxo-2-(((tetrahydro-2H-pyran-4-yl)methyl)amino)benzo[b][1,8]naphthyridin-10(5H)-yl)acetate]	20 to 100 µM	> 50%	D (“D” > 7° C.)
CCOc1c(Cl)ccc2c(=O)c3ccc(N(C)CCn4ccnc4)nc3n(CC(=O)O)c12 [Compound 72, sodium 2-(8-chloro-9-ethoxy-2-{[2-(imidazole-1-yl)ethyl](methyl)amino}-5-oxobenzo[b]1,8-naphthyridin-10-yl)acetate]	100 to 300 µM	5 to 25%	D (“D” > 7° C.)
